According to patent US10875898B2, “Bioactive protein, use thereof and method for its production” (Koppert B.V., priority 2014, dated 2020):

How the values were obtained:
Lotus japonicus = assay: plantlet development of Lotus japonicus; assay type: in vivo; conditions: 10^−8 M in agarized medium
Description: FIG. 12: Effect of purified HYTLO1 on the growth of Arabidopsis (A), percentage seed germination of cucumber (B) and plantlet development of Lotus japonicus (C). A: Arabidopsis thaliana (Columbia-0: Col-0) seeds were sown in Levington's F2 compost plus sand (JFC Munro, Devon; http://www.jfcmonro.com) and chilled for 2 days at 4° C. Plants were grown under short-day conditions (10 h light) in a controlled environment chamber, at 22° C. during the day and 18° C. at night with 60% relative humidity for 5-6 weeks before transplanting. Ten ml of sterile solutions of HYTLO1 were drenched every two days at concentrations 0.072 μg/ml (0.01 μM) for one month in each pot containing 100 ml of soil and 1 Arabidopsis plant. Untreated plants were used as controls. B: Sterile cucumber seeds were placed on magenta box containing half-strength Murashige and Skoog salt (MS) medium (ICN Biomedicals) containing 1% agar and 1.5% sucrose, adjusted to pH 5.7, and vernalized for 2 days at 4° C. in the absence of light. A sterile solutions of HYTLO1 was added to the substrate at final concentration of 10^−8 M before the solidification of agar. C: The same concentration of HYTLO1 was used in the agarized medium used for the L. japonicus test. […]

cucumber = assay: combined application of HYTLO1, HA and 6PP on cucumber seed germination and growth promotion; assay type: in vivo; parameters: Root length, increase % vs. Control / Plant fresh weight, increase % vs. Control / Plant dry weight, increase % vs. Control / plant height, increase % vs. Control: concentration or dose not given beside the values
Description: Tested metabolites include 6PP and Harzianic Acid, and experiments were performed on seed germination, stem or root elongation as well fresh/dry weight. The results shown in Table 1 were obtained by using cucumber seeds coated with the solutions of the tested compounds, that were then transferred in Petri dishes and left to germinate on filter humid paper. First seed germination was evaluated, then the germinated seedlings were transplanted into pots containing sterilised soil. Other two treatments with the purified molecules were performed at 10 days interval, by drenching the soil with the solutions at the final concentrations of 10^−7M for 6PP and HA, and 10^−8M for HYTLO1. In two-compounds application, half dose of each molecule was used. In three-compound applications, one third of the dose of each molecules was used. Each treatments consisted of 8 plants. Results were collected 30 days after seed coating. Control was produced by adding water instead of the molecule solutions. The effect of the minimal amounts of solvents eventually contained in HA and 6PP solution was preliminary tested, with no differences observed in comparison to water control. The results shown in Table 1 that all of the three tested molecules have a significant beneficial effect on seed germination and plant growth, and that they can be synergistically combined for enhanced effectiveness.

## HYTLO1: about 7 KDa Type II hydrophobin protein from Trichoderma longibrachiatum strain MK1, 71 aa, SEQ ID NO: 1
Lotus japonicus
  growth promotion effect (plantlet development): confirmed
cucumber; 30 days after seed coating, SD +− 1.3 g
  Plant dry weight: 8.4 g
cucumber; 30 days after seed coating, SD +− 2.1 cm
  Root length (cm): 14.6 cm
cucumber; 30 days after seed coating, SD +− 2.5 g
  Plant fresh weight: 24.76 g
cucumber; 30 days after seed coating, drench 10^−7M 6PP and HA, 10^−8M HYTLO1, half or one third dose in combinations, SD +− 2.5 cm
  plant height (cm): 24.9 cm
cucumber; coated cucumber seeds on humid filter paper, SD +− 9%
  Seed germination (24 h): 78%
cucumber; vs water control
  Seed germination (24 h), increase % vs. Control: +30%
cucumber; vs water control, 30 days
  Plant dry weight, increase % vs. Control: 51.2%
  Plant fresh weight, increase % vs. Control: 34.1%
  Root length, increase % vs. Control: 17.1%
